Assay results: patent US20110112299A1, “TETRACYCLIC COMPOUND” (KYOWA HAKKO KIRIN CO., LTD., priority 2008, published 2011)
Each block holds one compound with its values, some of them ahead of it.

What was measured:
[1] = test system: transcription-promoting activity via the glucocorticoid receptor (A549/MMTV-LTR cells); type: cell-based; details: at a concentration of 300 nmol/L; relative to dexamethasone
Experimental: A pGL4.14 plasmid (Promega, product number: AY864928) having a cloned MMTV-LTR fragment upstream of the luciferase gene (−200 to +100 relative to the transcription initiation site) was introduced into A549 cells, and the obtained strain which is constitutively resistant to a selective antibiotic hygromycin B (A549/MMTV-LTR) was used for evaluation. The A549/MMTV-LTR cells were transferred to a 96-well plate (25000 cells/well) and were cultured overnight. […] Next, 20 μL of the test compound diluted to 5-fold of the desired concentration with F-12 medium or 20 μL of 4 μmol/L dexamethasone was added thereto, and the mixture was incubated under 5% CO2 at 37° C. for 6 hours. To each well, 50 μL of a luminescence reagent (Promega, product number: E2550 or E2650) was added, and the mixture was stirred to dissolve the cells, and the luciferase activity was measured by a plate reader (PerkinElmer, TopCount).
MMTV activity (%)=100×(luminescence amount in the presence of the compound−luminescence amount in the absence of the compound)/(luminescence amount in the presence of dexamethasone−luminescence amount in the absence of the compound)

[2] = target: T1, recombinant human glucocorticoid receptor (Homo sapiens, UniProt P04150); test: Human glucocorticoid receptor assay (2) (fluorescence polarization, Test Example 5); type: binding; details: for selectivity for human glucocorticoid receptor over progesterone receptor: from the results of Test Examples 5 and 6
T1 construct: purchased Panvera/Invitrogen P2812 (kit P2893)
T1 sequence (P04150 1-777): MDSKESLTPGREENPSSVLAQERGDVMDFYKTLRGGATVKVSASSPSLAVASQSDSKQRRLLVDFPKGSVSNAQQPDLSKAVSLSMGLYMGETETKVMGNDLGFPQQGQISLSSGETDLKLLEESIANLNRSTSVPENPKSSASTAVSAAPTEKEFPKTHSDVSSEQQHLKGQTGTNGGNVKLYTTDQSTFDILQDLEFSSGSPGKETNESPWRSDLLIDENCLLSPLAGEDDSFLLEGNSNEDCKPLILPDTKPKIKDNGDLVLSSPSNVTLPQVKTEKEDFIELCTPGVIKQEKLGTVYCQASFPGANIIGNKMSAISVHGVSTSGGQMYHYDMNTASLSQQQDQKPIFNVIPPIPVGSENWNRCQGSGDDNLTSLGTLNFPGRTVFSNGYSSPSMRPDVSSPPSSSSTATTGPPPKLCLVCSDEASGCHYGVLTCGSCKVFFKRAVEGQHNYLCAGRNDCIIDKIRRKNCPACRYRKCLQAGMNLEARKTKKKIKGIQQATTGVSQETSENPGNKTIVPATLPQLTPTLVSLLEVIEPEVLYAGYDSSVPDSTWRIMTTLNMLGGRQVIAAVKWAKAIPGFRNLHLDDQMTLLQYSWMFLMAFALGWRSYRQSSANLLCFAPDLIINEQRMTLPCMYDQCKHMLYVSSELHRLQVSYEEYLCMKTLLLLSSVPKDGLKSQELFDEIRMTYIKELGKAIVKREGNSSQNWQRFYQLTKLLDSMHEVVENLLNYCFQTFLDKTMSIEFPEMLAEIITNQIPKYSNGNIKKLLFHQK
Experimental: In this assay, a fluorescence polarization assay kit (Panvera/Invitrogen, product number: P2893) was used. The recombinant human glucocorticoid receptor (product number: P2812), the Fluoromore (trademark)-labeled dexamethasone (GS Green, product number: P2813), the stabilizing peptide solution (product number: P2815), and the basic buffer solution (product number: P2814) which were used in the assay kit had been stored at −80° C. until used. A buffer solution for the assay was prepared by adding the basic buffer solution (10 fold dilution), the stabilizing peptide solution (10 fold dilution), and 1 mol/L DTT (dithiothreitol) (1000 fold dilution to give a final concentration of 1 mmol/L).
The assay was performed as follows. The test compound was diluted to 2-fold of the desired concentration with the buffer solution for the assay, and 16 μL of that was added to each well. Next, the Fluoromore (trademark)-labeled dexamethasone was diluted with the buffer solution for the assay so as to be 4 nmol/L, and 8 μL of that was added to each well. Further, the recombinant human glucocorticoid receptor was diluted with the buffer solution for the assay so as to be 16 nmol/L, and 8 μL of that was added to each well. After stirring the mixture, the mixture was incubated under a light-shielded condition at room temperature for 2 hours or more. The fluorescence polarization value of each well was measured using a plate reader (PerkinElmer, Fusion or Envision). To a negative control group, the compound was not added. To a positive control group, dexamethasone was added so as to give a final concentration of 1 μmol/L. The glucocorticoid receptor binding inhibitory rate (%) was calculated by the following formula.
Glucocorticoid receptor binding inhibitory rate (%)=100×[1−(fluorescence polarization value of test compound solution−fluorescence polarization value of positive control solution)/(fluorescence polarization value of negative control solution−fluorescence polarization value of positive control solution)]

[3] = test system: IL-1β induced IL-6 production (A549 cells); test: Inhibition assay for IL-1β induced IL-6 production in A549 cells (Test Example 3); type: cell-based, human; details: Homo sapiens, at a concentration of 100 nmol/L, IL-1β stimulation, relative to dexamethasone, read-out: IL-6 production inhibitory activity
Experimental: A549 cells cultured in F-12 medium supplemented with 10% bovine serum for 3 to 5 days were transferred to a 96-well plate (50000 cells/well) and then were cultured overnight. […] After the medium was removed by suction, 60 μL of F-12 medium was added to each well, and 20 μL of the test compound diluted to 5-fold of the desired concentration with F-12 medium or 20 μL of 4 μmol/L dexamethasone was added thereto. The test compound and the dexamethasone used here were prepared beforehand by dissolving in dimethyl sulfoxide (DMSO) and diluting with F-12 medium so that the final concentration of DMSO became 0.1% v/v or lower. After 30-minute incubation under 5% CO2 atmosphere at 37° C., 20 μL of 4 nmol/L IL-1β diluted with F-12 medium was added to each well, and then incubation was performed under a 5% CO2 atmosphere at 37° C. for 12 to 18 hours. The 96-well plate was centrifuged at 300×g at 4° C. for 5 minutes, and then the culture supernatant was collected for use as a sample for IL-6 measurement. The IL-6 produced in the culture supernatant was quantified by the ELISA method (R&D Systems, product number: DY206, DouSet ELISA Development System Human IL-6), and the production inhibition rate was calculated by the following formula. […]

Structure (SMILES): CC/C(=C1\c2cc3cnn(C(C)C)c3cc2COc2ccccc21)c1cccc(NS(C)(=O)=O)c1 [Compound 8, (Z)-5-{1-[3-(methanesulfonamide)phenyl]propylidene}-1-isopropyl-5,11-dihydro-1H-indazolo[5,6-e]benzo[b]oxepin]
- MMTV activity [1]: 22%

Structure (SMILES): CC/C(=C1\c2cc3cnn(C(C)C)c3cc2COc2ncccc21)c1cccc(NS(C)(=O)=O)c1 [Compound 25, (Z)-1-isopropyl-5-{1-[3-(methanesulfonamide)phenyl]propylidene}-5,11-dihydro-1H-indazolo[5,6-e]pyrido-[2,3-b]oxepin]
- selectivity for human glucocorticoid receptor over progesterone receptor [2]: selective binding activity to human glucocorticoid receptors

Structure (SMILES): CC/C(=C1\c2cc3cnn(C4CC4)c3cc2COc2ncccc21)c1cccc(NS(C)(=O)=O)c1 [Compound 34, (Z)-1-cyclopropyl-5-{1-[3-(methanesulfonamide)phenyl]propylidene}-5,11-dihydro-1H-indazolo[5,6-e]pyrido[2,3-b]oxepin]
- MMTV activity [1]: 25%
- selectivity for human glucocorticoid receptor over progesterone receptor [2]: selective binding activity to human glucocorticoid receptors

Structure (SMILES): CC/C(=C1\c2cc3cnn(-c4ccc(F)cc4)c3cc2COc2ncccc21)c1cccc(NS(C)(=O)=O)c1 [Compound 43, (Z)-1-(4-fluorophenyl)-5-{1-[3-(methanesulfonamide)phenyl]-propylidene}-5,11-dihydro-1H-indazolo[5,6-e]pyrido[2,3-b]oxepin]
- selectivity for human glucocorticoid receptor over progesterone receptor [2]: selective binding activity to human glucocorticoid receptors

- inhibition at 0.1 µM ([2]; at a concentration of 100 nmol/L, read-out: glucocorticoid receptor binding inhibitory activity): ≥ 80%
Structure (SMILES): CC/C(C(=O)Nc1nccs1)=C1\c2cc3cnn(-c4ccc(F)cc4)c3cc2COc2ccccc21 [Compound 89, (Z)-1-(4-fluorophenyl)-5-{1-[(thiazole-2-yl)aminocarbonyl]propylidene}-5,11-dihydro-1H-indazolo[5,6-e]benzo[b]oxepin]
- inhibition at 0.1 µM [3]: ≥ 80%

Structure (SMILES): C[C@@H]1C[C@H]2[C@@H]3CCC4=CC(=O)C=C[C@]4(C)[C@@]3(F)[C@@H](O)C[C@]2(C)[C@@]1(O)C(=O)CO [dexamethasone, reference compound]
- MMTV activity [1]: ≥ 100%

Structure (SMILES): C[C@]12C=CC(=O)C=C1CC[C@@H]1[C@@H]2[C@@H](O)C[C@@]2(C)[C@H]1CC[C@]2(O)C(=O)CO [prednisolone, reference compound]
- MMTV activity [1]: ≥ 80%
